Assay results published in PubChem BioAssay AID248 (DTP/NCI, 2004).
Several values for one entry are separate records, joined by “and”; a condition that tells them apart may be missing. Equal values may be shown once. Toxic doses and inconclusive results are not listed. No stated cut-off is given here; in the data, active means T/C of 150% or more; inactive means T/C below 125%.

System: L1210 leukemia ip in BDF1 mice, survival T/C
Experiment: NCI In Vivo Anticancer Drug Screen. Data for tumor model L1210 Leukemia (intraperitoneal) in B6D2F1 (BDF1) mice
Details: endpoint: mean survival time, higher = longer survival
How it was run: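 In this screen, tumor-bearing mice given compound are compared to those given vehicle, and their survival values are reported as a treated-to-control quotient.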

[1] = dose: 25.0 mg/kg/injection, schedule: Q04DX002 (ip), vehicle: Klucel (hydroxypropylcellulose) (HPC)
[2] = dose: 50.0 mg/kg/injection, schedule: Q04DX002 (ip), vehicle: Klucel (hydroxypropylcellulose) (HPC)
[3] = dose: 100.0 mg/kg/injection, schedule: Q04DX002 (ip), vehicle: Klucel (hydroxypropylcellulose) (HPC)
[4] = dose: 100.0 mg/kg/injection, schedule: Q04DX003 (ip), vehicle: Klucel (hydroxypropylcellulose) (HPC)
[5] = dose: 200.0 mg/kg/injection, schedule: Q04DX003 (ip), vehicle: Klucel (hydroxypropylcellulose) (HPC)
[6] = dose: 400.0 mg/kg/injection, schedule: Q04DX003 (ip), vehicle: Klucel (hydroxypropylcellulose) (HPC)
[7] = dose: 100.0 mg/kg/injection, schedule: Q01DX009 (ip), vehicle: Klucel (hydroxypropylcellulose) (HPC)
[8] = dose: 200.0 mg/kg/injection, schedule: Q01DX009 (ip), vehicle: Klucel (hydroxypropylcellulose) (HPC)
[9] = dose: 400.0 mg/kg/injection, schedule: Q01DX009 (ip), vehicle: Klucel (hydroxypropylcellulose) (HPC)
[10] = dose: 100.0 mg/kg/injection, schedule: Q04DX003 (ip), vehicle: saline
[11] = dose: 200.0 mg/kg/injection, schedule: Q04DX003 (ip), vehicle: saline
[12] = dose: 100.0 mg/kg/injection, schedule: Q04DX003 (ip), vehicle: saline with Tween-80
[13] = dose: 200.0 mg/kg/injection, schedule: Q04DX003 (ip), vehicle: saline with Tween-80
[14] = dose: 400.0 mg/kg/injection, schedule: Q04DX003 (ip), vehicle: saline with Tween-80
[15] = dose: 100.0 mg/kg/injection, schedule: Q01DX001 (ip), vehicle: saline with Tween-80
[16] = dose: 200.0 mg/kg/injection, schedule: Q01DX001 (ip), vehicle: saline with Tween-80
[17] = dose: 400.0 mg/kg/injection, schedule: Q01DX001 (ip), vehicle: saline with Tween-80

Measured: T/C

Oc1ccc2ccccc2c1N=Nc1ccc(Cl)cc1
inactive: dose: 12.5 mg/kg/injection, schedule: Q01DX015 (ip), vehicle: saline 104 % of control | dose: 25.0 mg/kg/injection, schedule: Q01DX015 (ip), vehicle: saline 106 % of control | dose: 50.0 mg/kg/injection, schedule: Q01DX015 (ip), vehicle: saline 106 % of control | dose: 100.0 mg/kg/injection, schedule: Q01DX009 (ip), vehicle: carboxymethylcellulose (CMC) 87 % of control | dose: 100.0 mg/kg/injection, schedule: Q01DX015 (ip), vehicle: saline 98 % of control | dose: 100.0 mg/kg/injection, schedule: Q04DX003 (ip), vehicle: acetone 98 % of control | dose: 200.0 mg/kg/injection, schedule: Q01DX009 (ip), vehicle: carboxymethylcellulose (CMC) 87 % of control | dose: 200.0 mg/kg/injection, schedule: Q01DX015 (ip), vehicle: saline 95 % of control | dose: 200.0 mg/kg/injection, schedule: Q04DX003 (ip), vehicle: acetone 94 % of control | dose: 400.0 mg/kg/injection, schedule: Q01DX015 (ip), vehicle: saline 90 % of control | dose: 400.0 mg/kg/injection, schedule: Q04DX003 (ip), vehicle: acetone 88 % of control | dose: 800.0 mg/kg/injection, schedule: Q01DX015 (ip), vehicle: saline 96 % of control | dose: 1600.0 mg/kg/injection, schedule: Q01DX015 (ip), vehicle: saline 89 % of control

COc1cc2c(cc1OC)N(C(C)=O)Cc1ccc(C=O)n1C2
inactive: [1] 105 % of control | [2] 97 % of control | [3] 90 % of control

S=c1[nH]nc2ccccn12
inactive: [4] 100 % of control | [5] 94 % of control | [6] 94 % of control

Cc1cc(O)ccc1C1=[N+](C)CC(C)S1 (configuration not stated)
inactive: dose: 12.5 mg/kg/injection, schedule: Q04DX002 (ip), vehicle: saline 103 % of control | dose: 25.0 mg/kg/injection, schedule: Q04DX002 (ip), vehicle: saline 100 % of control | dose: 50.0 mg/kg/injection, schedule: Q04DX002 (ip), vehicle: saline 103 % of control

Clc1ccc(C=Nc2ccc3c(c2)Cc2ccccc2-3)cc1
inactive: [7] 90 % of control | [4] 96 % of control | [8] 93 % of control | [5] 102 % of control | [9] 92 % of control | [6] 91 % of control

CCCCOC(=O)c1ccc(NC(=O)Nc2ccc(SC)cc2)cc1
inactive: [7] 95 % of control | [8] 95 % of control | [9] 95 % of control

CC(=O)O[C@H]1[C@H]2O[C@]23[C@@H]2CC[C@]4(O)C[C@@H](O)CC[C@]4(C)[C@H]2CC[C@]3(C)[C@H]1c1ccc(=O)oc1
inactive: dose: 10.0 mg/kg/injection, schedule: Q01DX001 (ip), vehicle: other 90 % of control | dose: 20.0 mg/kg/injection, schedule: Q01DX001 (ip), vehicle: other 100 % of control | dose: 40.0 mg/kg/injection, schedule: Q01DX001 (ip), vehicle: other 107 % of control | dose: 100.0 mg/kg/injection, schedule: Q01DX001 (ip), vehicle: other 94 % of control | dose: 200.0 mg/kg/injection, schedule: Q01DX001 (ip), vehicle: other 92 % of control

CCN(CC)CCNC(=O)c1c2nc3c(C(=O)NCCN(CC)CC)ccc(C)c3oc-2c(C)c(=O)c1N
inactive: [1] 101 % of control | [2] 97 % of control | dose: 75.0 mg/kg/injection, schedule: Q01DX001 (ip), vehicle: carboxymethylcellulose (CMC) 105 % of control | [3] 94 % of control

O=[N+]([O-])c1cc(Cl)cc2c1-c1c(Cl)cc(Cl)cc1C2Br (configuration not stated)
inactive: [7] 101 % of control | [4] 98 % of control | [8] 104 % of control | [5] 96 % of control | [9] 103 % of control | [6] 93 % of control

CNCCN1CCCC1
inactive: dose: 50.0 mg/kg/injection, schedule: Q01DX009 (ip), vehicle: saline 95 % of control | dose: 100.0 mg/kg/injection, schedule: Q01DX009 (ip), vehicle: saline 103 % of control | [10] 102 % of control | dose: 200.0 mg/kg/injection, schedule: Q01DX009 (ip), vehicle: saline 101 % of control | [11] 109 % of control

O=C1c2ccccc2C(=O)N1CNCCCNCN1C(=O)c2ccccc2C1=O
inactive: [12] 93 % of control | [13] 95 % of control | [14] 96 % of control

O=C(Nc1ccccc1C(=O)N/N=C/c1ccc(Cl)cc1Cl)c1ccccc1Cl
inactive: [7] 90 % of control | [8] 97 % of control | [9] 86 % of control

N#C/C(=N\Nc1ccc(S(=O)(=O)O)cc1)C(N)=O
inactive: [10] 104 % of control | [11] 100 % of control | dose: 400.0 mg/kg/injection, schedule: Q04DX003 (ip), vehicle: saline 98 % of control

N#C/C(N)=C(\C#N)N=Cc1ccc(-c2ccccc2)cc1
inactive: [15] 97 % of control | [16] 92 % of control | [17] 93 % of control

N#C/C(=C\c1ccc(Cl)cc1)c1ccccc1
inactive: dose: 100.0 mg/kg/injection, schedule: Q04DX003 (ip), vehicle: gum acacia 100 % of control | dose: 200.0 mg/kg/injection, schedule: Q04DX003 (ip), vehicle: gum acacia 102 % of control | dose: 400.0 mg/kg/injection, schedule: Q04DX003 (ip), vehicle: gum acacia 109 % of control

CS(=O)(=O)OCCN(CCOS(C)(=O)=O)c1ccc(N=O)c(Cl)c1
inactive: dose: 0.08 mg/kg/injection, schedule: Q01DX015 (ip), vehicle: saline 97 % of control | dose: 0.14 mg/kg/injection, schedule: Q01DX015 (ip), vehicle: saline 103 % of control | dose: 0.22 mg/kg/injection, schedule: Q01DX001 (ip), vehicle: saline 114 % of control | dose: 0.23 mg/kg/injection, schedule: Q01DX015 (ip), vehicle: saline 114 % of control | dose: 0.5 mg/kg/injection, schedule: Q01DX001 (ip), vehicle: saline 122 % of control | dose: 1.0 mg/kg/injection, schedule: Q01DX015 (ip), vehicle: saline 124 % of control | dose: 2.0 mg/kg/injection, schedule: Q01DX015 (ip), vehicle: saline 97 % of control | dose: 4.0 mg/kg/injection, schedule: Q01DX001 (ip), vehicle: saline 117 % of control | dose: 4.5 mg/kg/injection, schedule: Q01DX001 (ip), vehicle: saline 86 % of control

CC1(c2ccco2)CCC(=O)CC1=O (configuration not stated)
inactive: [4] 101 % of control | [5] 98 % of control | [6] 98 % of control

O=[N+]([O-])c1ccc(SNc2ccc(O)cc2)cc1[N+](=O)[O-]
inactive: [7] 101 % of control | [4] 94 % of control | [8] 100 % of control | [5] 100 % of control | [9] 105 % of control | [6] 95 % of control

CCCN1CCN(CCCO)CC1C (configuration not stated)
inactive: dose: 100.0 mg/kg/injection, schedule: Q01DX001 (ip), vehicle: saline 103 % of control | dose: 200.0 mg/kg/injection, schedule: Q01DX001 (ip), vehicle: saline 105 % of control | dose: 400.0 mg/kg/injection, schedule: Q01DX001 (ip), vehicle: saline 103 % of control

CCOC(=O)C(=O)c1ccc[nH]1
inactive: [15] 114 % of control | [12] 94 % of control | [16] 115 % of control | [13] 101 % of control | [17] 111 % of control | [14] 92 % of control

CC1(C)CC(OP(=O)(OC2CC(C)(C)N(O)C(C)(C)C2)OC2CC(C)(C)N(O)C(C)(C)C2)CC(C)(C)N1O
inactive: dose: 50.0 mg/kg/injection, schedule: Q01DX001 (ip), vehicle: water 104 % of control | dose: 100.0 mg/kg/injection, schedule: Q01DX001 (ip), vehicle: water 94 % of control and 97 % of control | dose: 200.0 mg/kg/injection, schedule: Q01DX001 (ip), vehicle: water 103 % of control | dose: 400.0 mg/kg/injection, schedule: Q01DX001 (ip), vehicle: water 113 % of control
